Experimental data: paper PMC3408433, “Selective Cytotoxicity of Amidinopiperidine Based Compounds Towards Burkitt’s Lymphoma Cells Involves Proteasome Inhibition” (PLoS ONE, 2012)
Like-named read-outs stand apart in the source and are kept apart here.

Tests used:
[1] = tested on: Ramos Burkitt’s lymphoma cells; experiment: Metabolic activity assay (MTS), Ramos; assay type: cell-based, human; conditions: 24 h; for cytotoxicity group (Figure 3A) / viability at 100 µM: 100 µM; for viability at 100 µM: Homo sapiens, read-out: residual metabolic activity relative to untreated control
Method: When investigating the potency of selected serine protease inhibitors to induce cell death in human B lymphoma cells, we identified a set of compounds cytotoxic for Burkitt’s lymphoma. Using a metabolic activity assay (MTS), we evaluated the proliferation rate of Ramos Burkitt’s lymphoma cells, in the presence of serine protease inhibitors. Cells were treated for 24 h with the compound of interest at concentrations of 100 µM (1–13, 15, 16) or 50 µM (14). After a comparison of metabolic activity relative to that in the untreated control, three groups with distinct modes of action were determined (Figure 3A). […] The second group (compounds 1–3, 5, 7 and 13) caused a moderate decrease (50% to 80%) relative to untreated cells. The last group of compounds (11, 15, 16) severely impaired the metabolic activity, such that it fell to under 6%.
(§1) Cells (1×10^5 cells/mL for Ramos, Daudi, U937 and Jurkat, and 1×10^6 cells/mL for PBMC) were treated with the appropriate amounts of compounds of interest or corresponding vehicle (control cells), then seeded in triplicate in 96 well plates. The metabolic activity was assessed using the CellTiter 96® Aqueous One Solution Cell Proliferation Assay (Promega, Madison/WI, USA), in accordance with the manufacturer’s instructions.

Thrombin = molecular target: Thrombin; design: method as in PMID 15497744, PMID 15544050, PMID 17484277; conditions: amidolytic assay, chromogenic substrate; determined previously; cited from earlier work
Factor Xa = molecular target: Factor Xa; design: method as in PMID 15497744, PMID 15544050, PMID 17484277; conditions: amidolytic assay, chromogenic substrate; determined previously; cited from earlier work
Trypsin = molecular target: Trypsin; design: method as in PMID 15497744, PMID 15544050, PMID 17484277; conditions: amidolytic assay, chromogenic substrate; determined previously; cited from earlier work
α-chymotrypsin = α-chymotrypsin (Bos taurus, UniProt P00766); experiment: α-Chymotrypsin inhibition assay
Method: In short, a 1 nM solution of α-chymotrypsin was mixed with various concentrations of the substrate Suc-Ala-Ala-Pro-Phe-AMC. All the solutions were prepared in 144 mM Tris–HCl, pH 7.8. Substrate hydrolysis was monitored at 30°C on an automated Tecan Safire^2 microplate reader (Tecan, Mannedorf/Zürich, Switzerland). The initial rates of the reactions (ΔF/Δt) were measured immediately after the addition of the substrate (within 200 s) and plotted versus substrate concentration with nonlinear regression to fit a Michaelis-Menten plot. The curve fit and kinetic parameters (Km and v max) were calculated using GraphPad PRISM version 5.0 software (GraphPad Software, Inc., CA, USA). […] The initial velocities of the hydrolysis reactions were measured under the same conditions as described for the determination of Km. 50 µl of α-chymotrypsin solution was added to 50 µl of each inhibitor solution (prepared in 144 mM Tris–HCl, pH 7.8; final concentration 1 nM) and incubated at 30°C for 15 min. The reaction was initiated with the addition of 100 µl of substrate. […] The Ki values were determined as mean values of all measurements.

[2] = tested on: peripheral blood mononuclear cells (PBMC); experiment: Metabolic activity assay (MTS), PBMC; assay type: cell-based, human; conditions: 50 µM, 24 h
Method: (§2) Compounds 11, and 14–16 were further tested for selective cytotoxicity. The experiments were conducted on freshly isolated primary peripheral blood mononuclear cells (PBMC) and three other haematological cancers: human T cell leukaemia (Jurkat), human histiocytic lymphoma (U937) and human Burkitt’s lymphoma (Daudi). An MTS assay was performed following 24 h of treatment with the compound of interest at 50 µM. […] The inhibition of proliferation in Ramos cells, mediated with compounds 15 and 16, was concentration dependent.
as §1

[3] = tested on: human T cell leukaemia (Jurkat); experiment: Metabolic activity assay (MTS), Jurkat; assay type: cell-based; conditions: 50 µM, 24 h
Method: as §2, §1

[4] = tested on: human histiocytic lymphoma (U937); experiment: Metabolic activity assay (MTS), U937; assay type: cell-based; conditions: U937, 50 µM, 24 h
Method: as §2, §1

[5] = tested on: human Burkitt’s lymphoma (Daudi); experiment: Metabolic activity assay (MTS), Daudi; assay type: cell-based; conditions: 50 µM, 24 h
Method: as §2, §1

Solubility remark = assay type: physicochemical; conditions: reason for testing at 50 µM

For `N/C(=N/O)c1ccc(CN(NC(=O)c2ccc3ccccc3c2)C(=O)N2CCCCCC2)cc1` [Compound 1], the “cytotoxicity group (Figure 3A)” value [1] is given as “moderately cytotoxic (caused a moderate decrease (50% to 80%) relative to untreated cells)”, the viability at 100 µM [1] is given as 50 to 80% and the Ki (Thrombin) is given as 5.2 µM. For the same compound, the Ki (Factor Xa) was 78 µM, the Ki (Trypsin) was 660 µM and the Ki (α-chymotrypsin) was 33.5 µM.
For `CC1CCN(C(=O)N(Cc2ccc(/C(N)=N\O)cc2)NC(=O)c2ccc3ccccc3c2)CC1` [Compound 2], the “cytotoxicity group (Figure 3A)” value [1] is given as “moderately cytotoxic (caused a moderate decrease (50% to 80%) relative to untreated cells)”, the viability at 100 µM [1] is given as 50 to 80% and the Ki (Thrombin) is given as over 200 µM. For the same compound, the Ki (Factor Xa) was over 200 µM, the Ki (Trypsin) was 200 µM and the Ki (α-chymotrypsin) was 259 µM.
For `N/C(=N\O)c1cccc(CN(NC(=O)c2ccc3ccccc3c2)C(=O)N2CCCCCC2)c1` [Compound 3], the “cytotoxicity group (Figure 3A)” value [1] is given as “moderately cytotoxic (caused a moderate decrease (50% to 80%) relative to untreated cells)”, the viability at 100 µM [1] is given as 50 to 80% and the Ki (Thrombin) is given as 4.8 µM. The Ki (Factor Xa) was 60 µM, the Ki (Trypsin) was over 100 µM and the Ki (α-chymotrypsin) was 3 µM.
In the case of `N/C(=N\O)c1cccc(CN(NS(=O)(=O)c2ccc3ccccc3c2)C(=O)N2CCOCC2)c1` [Compound 4], the “cytotoxicity group (Figure 3A)” value [1] is listed as “well tolerated (well tolerated by Ramos, since their residual metabolic activity did not fall below 80%)”, the viability at 100 µM [1] is listed as at least 80% and the Ki (Thrombin) is listed as 3.1 µM. For the same compound, the Ki (Factor Xa) was 60 µM, the Ki (Trypsin) was 48 µM and the Ki (α-chymotrypsin) was 41 µM.
For `CC1CCN(C(=O)N(Cc2ccc(C#N)cc2)NC(=O)c2ccc3ccccc3c2)CC1` [Compound 5], the “cytotoxicity group (Figure 3A)” value [1] was “moderately cytotoxic (caused a moderate decrease (50% to 80%) relative to untreated cells)”, the viability at 100 µM [1] was 50 to 80% and the Ki (α-chymotrypsin) was 273 µM.
For `CC1CCN(C(=O)N(Cc2cccc(C(=N)N)c2)NC(=O)c2ccc3ccccc3c2)CC1` [Compound 6], the “cytotoxicity group (Figure 3A)” value [1] is listed as “well tolerated (well tolerated by Ramos, since their residual metabolic activity did not fall below 80%)”, the viability at 100 µM [1] is listed as at least 80% and the Ki (Thrombin) is listed as 6.8 µM. The Ki (Factor Xa) was 5.7 µM, the Ki (Trypsin) was 1.8 µM and the Ki (α-chymotrypsin) was 17.1 µM.
For `Nc1ccc(CN(NS(=O)(=O)c2ccc3ccccc3c2)C(=O)N2CCOCC2)cc1` [Compound 7], the “cytotoxicity group (Figure 3A)” value [1] is given as “moderately cytotoxic (caused a moderate decrease (50% to 80%) relative to untreated cells)”, the viability at 100 µM [1] is given as 50 to 80% and the Ki (Thrombin) is given as 4.5 µM. The Ki (Factor Xa) was 62 µM, the Ki (Trypsin) was 5.6 µM and the Ki (α-chymotrypsin) was 4 µM.
With `CC(=O)Nc1ccc(CN(NS(=O)(=O)c2ccc3ccccc3c2)C(=O)N2CCOCC2)cc1` [Compound 8] the “cytotoxicity group (Figure 3A)” value [1] was “well tolerated (well tolerated by Ramos, since their residual metabolic activity did not fall below 80%)”, the viability at 100 µM [1] was at least 80% and the Ki (α-chymotrypsin) was 24.7 µM.
With `CC(=O)NCc1ccc(CN(NS(=O)(=O)c2ccc3ccccc3c2)C(=O)N2CCCCC2)cc1` [Compound 9] the “cytotoxicity group (Figure 3A)” value [1] was “well tolerated (well tolerated by Ramos, since their residual metabolic activity did not fall below 80%)”, the viability at 100 µM [1] was at least 80% and the Ki (α-chymotrypsin) was 40.6 µM.
For `CC(C)CC(NS(=O)(=O)c1ccc2ccccc2c1)C(=O)NN(Cc1ccc(C(=N)N)cc1)C(=O)N1CCCCCC1` (centres unmarked) [Compound 10], the “cytotoxicity group (Figure 3A)” value [1] is given as “well tolerated (well tolerated by Ramos, since their residual metabolic activity did not fall below 80%)”, the viability at 100 µM [1] is given as at least 80% and the Ki (Thrombin) is given as 10 µM. The Ki (Factor Xa) was over 100 µM, the Ki (Trypsin) was over 100 µM and the Ki (α-chymotrypsin; read-out: Ki α-chymotrypsin, substrate Suc-Ala-Ala-Pro-Phe-AMC, pH 7.8, 30°C) was 8.8 µM.
In the case of `CC1CCN(C(=O)N(CC2CCNCC2)NS(=O)(=O)c2ccc3ccccc3c2)CC1` [Compound 11], the “residual metabolic activity relative to control” value ([1]; 50 µM) is reported as “under 40%”, the “cytotoxicity group (Figure 3A)” value [1] is reported as “severely cytotoxic (severely impaired the metabolic activity, such that it fell to under 6%)” and the viability at 100 µM [1] is reported as under 6%. The “residual metabolic activity relative to control” value [2] was “under 40%”, the “residual metabolic activity relative to control” value [3] was “under 40%” and the “residual metabolic activity relative to control” value [4] was “under 40%”. For the same compound, the “residual metabolic activity relative to control” value [5] was “under 40%”, the Ki (Thrombin) was 19 µM and the Ki (Trypsin) was over 200 µM. For the same compound, the Ki (α-chymotrypsin) was 38.8 µM.
For `O=C(N1CCOCC1)N(CC1CCNCC1)NS(=O)(=O)c1ccc2ccccc2c1` [Compound 12], the “cytotoxicity group (Figure 3A)” value [1] is given as “well tolerated (well tolerated by Ramos, since their residual metabolic activity did not fall below 80%)”, the viability at 100 µM [1] is given as at least 80% and the Ki (Thrombin) is given as 53 µM. The Ki (Trypsin) was over 200 µM and the Ki (α-chymotrypsin) was 150 µM.
In the case of `O=C(N1CCCCC1)N(CC1CCNCC1)NS(=O)(=O)c1ccc2ccccc2c1` [Compound 13], the “cytotoxicity group (Figure 3A)” value [1] is given as “moderately cytotoxic (caused a moderate decrease (50% to 80%) relative to untreated cells)”, the viability at 100 µM [1] is given as 50 to 80% and the Ki (Thrombin) is given as 30 µM. For the same compound, the Ki (Trypsin) was over 200 µM and the Ki (α-chymotrypsin) was 65.9 µM.
For `CC(=O)N1CCC(CN(NS(=O)(=O)c2ccc3ccccc3c2)C(=O)N2CCCCC2)CC1` [Compound 14], the “residual metabolic activity relative to control” value [2] was “under 40%”, the “residual metabolic activity relative to control” value [3] was “under 40%” and the “residual metabolic activity relative to control” value [4] was “under 40%”. For the same compound, the “residual metabolic activity relative to control” value [5] was “under 40%”, the solubility (Solubility remark) was “poor solubility” and the Ki (α-chymotrypsin) was 47.7 µM.
